Drawing on US8562804B2 (priority 2006, dated 2013), this text covers pKa and effective mobility for 1 molecule.

“And” between values parts separate entries of the source, which are not always exact repeats. Identical values can stand only once. Like-named read-outs stand apart in the source and are kept apart here.

Series [1] is classed as physicochemical.

By pKa is commonly meant the pH at which an ionisable group is half protonated. The low end stands for a group that gives up its proton readily, the high end for a group that holds its proton tightly. Molecule `O=[N+]([O-])c1ccccc1O` [2NP, 2-nitrophenol] returned a pKa in “physchem” of 6.7. The effective mobility in series [1] (pH 6.4) is 12.2(±0.3)·10^−9 m^2/Vs and 13.4(±0.3)·10^−9 m^2/Vs; in series [1] (pH 6.8), 15.8(±0.2)·10^−9 m^2/Vs and 16.3(±0.2)·10^−9 m^2/Vs.
